PMC3969243, “A PIP5 Kinase Essential for Efficient Chemotactic Signaling” (Current Biology, 2014)

Experiments:
PikI [1] = target: T1, PikI (Dictyostelium discoideum, UniProt Q55GN6, T262A); conditions: product PI(4,5)P2
T1 construct: gene DDB_G0267588

PikI [2] = target: T2, PikI (Dictyostelium discoideum, UniProt Q55GN6, T262E); conditions: product PI(4,5)P2; phosphomimetic
T2 construct: gene DDB_G0267588

PikI [3] = target: T3, PikI (Dictyostelium discoideum, UniProt Q55GN6); conditions: product PI(4,5)P2
T3 construct: gene DDB_G0267588
T3 sequence (Q55GN6 whole entry): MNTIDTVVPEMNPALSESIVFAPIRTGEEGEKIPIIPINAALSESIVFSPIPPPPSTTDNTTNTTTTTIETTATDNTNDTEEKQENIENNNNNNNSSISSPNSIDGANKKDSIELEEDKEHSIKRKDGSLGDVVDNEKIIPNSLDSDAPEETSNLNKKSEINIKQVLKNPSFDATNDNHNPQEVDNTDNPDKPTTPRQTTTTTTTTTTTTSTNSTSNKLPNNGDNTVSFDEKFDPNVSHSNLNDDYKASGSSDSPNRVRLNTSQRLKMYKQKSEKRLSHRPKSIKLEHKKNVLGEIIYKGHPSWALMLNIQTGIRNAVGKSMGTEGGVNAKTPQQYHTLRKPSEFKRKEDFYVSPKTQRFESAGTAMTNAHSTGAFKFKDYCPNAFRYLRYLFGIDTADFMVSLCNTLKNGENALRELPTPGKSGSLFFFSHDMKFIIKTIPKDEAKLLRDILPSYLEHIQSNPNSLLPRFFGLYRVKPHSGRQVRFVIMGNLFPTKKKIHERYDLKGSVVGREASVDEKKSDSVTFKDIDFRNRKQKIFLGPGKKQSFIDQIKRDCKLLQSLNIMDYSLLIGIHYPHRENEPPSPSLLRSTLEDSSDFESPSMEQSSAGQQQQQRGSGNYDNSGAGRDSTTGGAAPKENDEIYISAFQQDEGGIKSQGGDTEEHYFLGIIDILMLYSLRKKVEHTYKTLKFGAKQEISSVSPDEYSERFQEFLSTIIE

T2 sequence (Q55GN6 whole entry T262E): as the sequence (Q55GN6 whole entry) above, with T262E counted along it
T1 sequence (Q55GN6 whole entry T262A): as the sequence (Q55GN6 whole entry) above, with T262A counted along it

With PI(4)P the Km (PikI [1]) was 4.6 ± 2.87 µM, the Km (PikI [2]) was 6.39 ± 3.69 µM and the Km (PikI [3]) was 5.74 ± 3.18 µM.
